In patent publication US12077586B2, “Bispecific antibodies for use in the treatment of hematological malignancies” (LAVA THERAPEUTICS N.V., priority 2018, dated 2024):

Key:
Jeko-1 cells = experiment: Cytotoxicity assay with Vγ9Vδ2-T cell lines, Jeko-1 target cells; assay type: cell-based, human; conditions: 2 hours pretreatment (50 μM pamidronate or 25 μM mevastatin), 1:2; for 1D7-5C8-induced lysis of pretreated Jeko-1 cells: 100 nM 1D7-5C8, 6 hours; for Vγ9Vδ2-T cell-mediated lysis of pretreated Jeko-1 cells: no bispecific antibody, 6 hours
Protocol: Target cells were then cocultured overnight with Vγ9Vδ2-T cell lines in a 1:1 ratio unless otherwise indicated. Viability was measured using Mitotracker Orange (25-minute incubation at 37° C., M7510) and To-pro-3 (10-minute incubation at room temperature; T3605, both Thermo Fisher Scientific).
If indicated, target cells were pretreated with 25 μM mevastatin (M2537, Sigma-Aldrich), 50 μM aminobisphosphonates (pamidronate, #12J08RD, TEVA Pharmachemie, Haarlem, the Netherlands) or medium control for 2 hours.
If indicated, cells were cultured with the indicated concentrations of all-trans retinoic acid (ATRA; R2625, Sigma-Aldrich) for 48 hours unless otherwise indicated. ATRA was washed away prior to cytotoxicity assays.
If indicated, target cells were pre-incubated with 5 μg/mL anti-CD1d mAb (clone 51.1, 350304, Biolegend, San Diego, CA, USA) and/or 10 μg/mL anti-CD277 mAb (clone 103.2, Creative Biolabs, Shirley, NY, USA) for 10 minutes.

[1] = test system: CLL patient-derived Vγ9Vδ2-T cells; experiment: Activation, cytokine and degranulation assay with autologous CLL patient-derived Vγ9Vδ2-T cells; assay type: cell-based, human; conditions: overnight culture of CLL PBMC; 1D7-5C8 50 nM
Excerpt: (A-C) Activation of and cytokine production and degranulation by patient-derived Vγ9Vδ2-T cells. […] (D) Lysis of primary CLL cells by autologous Vγ9Vδ2-T cells. […] Live CLL cells were quantified by flow cytometry using counting beads (n=5). (E) Expansion of patient-derived Vγ9Vδ2-T cells. […] Percentage Vγ9Vδ2-T cells after 1 week (n=8). Data are presented as mean and SD. *P<0.05, **P<0.01, ***P<0.001. (A-D: one-way ANOVA followed by Dunnett's post hoc test compared to medium control; E: paired t-test).

Jurkat-Vδ1 cells = experiment: Modulation of Jurkat-Vδ1 cell activation (C1R-CD1d co-culture, CD69); assay type: cell-based, human; conditions: C1R-CD1d pulsed with 25 μg/ml sulfatide; VHH 100 nM or 1000 nM; 24 hr
Protocol: (§1) FIG. 2. Vδ1-sulf-CD1d interaction is prevented by anti-CD1d VHH 1D12 and reduced by 1D22. Endogenous or sulfatide loaded CD1d-PE tetramers were incubated with either PBS (control), 1D12 or 1D22 (4:1VHH:CD1d ratio) after which tetramers were used to stain Jurkat-Vδ1 cells (final concentration tetramer 2 μg/ml) in combination with CD3-APC. Tetramer binding is prevented by 1D12 and reduced by 1D22 (A). C1R-CD1d cells were incubated with DMSO controls or sulfatide (25 μg/ml) after which medium or anti-CD1d VHH were added at 1000 or 100 nM and incubated for 30 min. Next Jurkat-Vδ1 cells were added and the co-culture was incubated for an additional 24 h after which CD69 expression was determined by flow cytometry (B). N=3.
iNKT cells are known to dock over the extreme F′ pocket of CD1d which contrasts with sulfatide-CD1d restricted Vδ1-T cells that dock more towards the A′ pocket. We therefore evaluated the effect of 1D12 and 1D22 on sulfatide-CD1d restricted Vδ1-T cells. To evaluate the effect of 1D12 and 1D22 on Jurkat-Vδ1 cell activation, 1×10^5 C1R-CD1d cells were seeded per well in a 96-well tissue culture plate and pulsed for 2 hr with vehicle control (DMSO 0.05%) or 25 μg/ml sulfatide. […] After 24 hr Jurkat-Vδ1 cells were harvested and analysed for CD69 expression by flow cytometry. […]

iNKT cells = experiment: Modulation of iNKT cell activation (co-culture with Hela-CD1d cells); assay type: cell-based, human; conditions: 24 hr co-culture with Hela-CD1d pulsed with vehicle or α-GalCer; 1D12 100 nM, 1D22 1000 nM
Excerpt: FIG. 1. […] Representative dot-plots illustrating marked activation by 1D12 (A) or inhibition by 1D22 (B) of iNKT cells as depicted by CD25 expression, in addition to a marked increase (by 1D12) or decrease (by 1D22) in iNKT cell IFN-γ production (C and D). Data represent mean+SD of 3-4 individual experiments with iNKT obtained from different donors, **P<0.01, ***P<0.001, calculated with a one-way analysis of variance with Turkey's post hoc test.
To evaluate the capacity of 1D12 and 1D22 to stimulate or inhibit iNKT cell activation, 5×10^4 Hela-CD1d cells were seeded per well in a 96-well tissue culture plate and pulsed overnight with vehicle control (DMSO 0.01%) or 100 ng/ml α-GalCer. Cells were then washed with PBS and incubated with medium, or the anti-CD1d specific VHH for 1 hr at the indicated concentrations. Subsequently, 5×10^4 pure and resting iNKT were added to each well. After 24 hr, culture supernatants were analyzed for (induction or inhibition of) cytokine production by CBA (BD Biosciences) whereas iNKT cells were harvested and analyzed for CD25 expression by flow cytometry.

[2] = biological target: T1, sulfatide-loaded CD1d tetramers (Homo sapiens, UniProt P15813); experiment: CD1d-tetramer binding on Jurkat-Vδ1 cells; conditions: ratio VHH:CD1d of ~4:1; tetramer 2 μg/ml
T1 construct: made in house
Protocol: as §1
To evaluate the effect of 1D12 and 1D22 on CD1d-tetramer binding on Jurkat-Vδ1 cells, endogenous or sulfatide-loaded CD1d-PE tetramers were incubated with either PBS (control), 1D12 or 1D22 (ratio VHH:CD1d of ˜4:1) for 30 min at room temperature after which tetramers were added to Jurkat-Vδ1 cells (final concentration tetramer 2 μg/ml) in combination with CD3-APC and incubated for 45 min at 4 degrees Celsius. Data was analyzed by flow cytometry.

CD1d = biological target: T2, CD1d (Homo sapiens, UniProt P15813); conditions: previously characterized; cited from earlier work
T2 construct: expressed in transfected cells; host or cells: MM.1s (human multiple myeloma cell line) stably transduced with CD1d
T2 sequence (P15813 20-335): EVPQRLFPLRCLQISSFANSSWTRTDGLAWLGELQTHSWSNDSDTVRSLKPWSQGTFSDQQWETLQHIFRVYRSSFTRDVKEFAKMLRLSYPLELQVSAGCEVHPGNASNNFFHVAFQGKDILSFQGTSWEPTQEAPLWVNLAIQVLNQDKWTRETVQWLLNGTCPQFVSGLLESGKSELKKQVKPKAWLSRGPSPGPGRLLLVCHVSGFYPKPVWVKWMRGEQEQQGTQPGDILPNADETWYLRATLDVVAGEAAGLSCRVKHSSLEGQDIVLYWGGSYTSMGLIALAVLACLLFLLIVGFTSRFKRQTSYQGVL
T2 sequence (P61769 21-119 partner): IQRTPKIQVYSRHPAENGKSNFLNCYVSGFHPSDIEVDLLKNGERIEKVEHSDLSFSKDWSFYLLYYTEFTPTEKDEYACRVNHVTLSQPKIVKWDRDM

T1 sequence (P15813 20-301 limits assumed): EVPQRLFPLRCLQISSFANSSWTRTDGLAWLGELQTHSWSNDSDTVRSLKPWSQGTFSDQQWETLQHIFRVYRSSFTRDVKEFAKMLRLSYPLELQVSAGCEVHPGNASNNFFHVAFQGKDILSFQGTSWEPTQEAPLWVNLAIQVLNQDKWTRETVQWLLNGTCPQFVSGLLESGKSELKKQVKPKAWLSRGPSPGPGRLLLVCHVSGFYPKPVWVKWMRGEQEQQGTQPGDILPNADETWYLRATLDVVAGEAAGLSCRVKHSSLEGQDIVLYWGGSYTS
T1 sequence (P61769 21-119 partner): as the sequence (P61769 21-119 partner) above

Q: Which results are given for `NCCC(O)(P(=O)(O)O)P(=O)(O)O` [pamidronate, reference compound]?
A: 1D7-5C8-induced lysis of pretreated Jeko-1 cells (Jeko-1 cells): led to an increase in bispecific antibody 1D7-5C8-induced lysis of Jeko-1 cells; Vγ9Vδ2-T cell-mediated lysis of pretreated Jeko-1 cells (Jeko-1 cells): more sensitive to Vγ9Vδ2-T cell-mediated cytotoxicity; Upregulation of activation marker CD25 on patient Vγ9Vδ2-T cells [1]: 20.5 fold

Q: With `CC[C@H](C)C(=O)O[C@H]1CCC=C2C=C[C@H](C)[C@H](CC[C@@H]3C[C@@H](O)CC(=O)O3)[C@H]21` [mevastatin, reference compound] as the molecule, how does the “1D7-5C8-induced lysis of pretreated Jeko-1 cells” value (Jeko-1 cells) read?
A: decreased bispecific antibody 1D7-5C8-induced lysis

Q: And the “Vγ9Vδ2-T cell-mediated lysis of pretreated Jeko-1 cells” value (Jeko-1 cells)?
A: led to a reduction in lysis

B1: 1D22: anti-CD1d VHH, SEQ ID NO: 84 (protein)
VHH: QVQLVESGGGLVQAGGSLRLSCAASGSIFSINAMGAIRWSGESPYYADSVKGVISSSGSTNYADSVKGRFTISRDNAKNTAYLQMNSLKVEDTAVYYCAAHVAGFDEYNYWGQGTQVTVSS
modifications: antibody sequence
Q: With B1 as the molecule, how does the “Jurkat-Vδ1 cell activation (CD69 expression)” value (Jurkat-Vδ1 cells) read?
A: only a limited impact on expression of the activation marker CD69

Q: And the “iNKT cell activation (CD25 expression) and cytokine production” value (iNKT cells)?
A: completely blocked iNKT cell activation and cytokine production

Q: And the “Binding of sulfatide-loaded CD1d tetramers to Jurkat-Vδ1 cells” value [2]?
A: only a limited impact

B2: 1D7: CD1d-specific VHH, SEQ ID NO: 70 (protein)
VHH: EVQLVESGGGLVQAGGSLRLSCAASVSSFSSYTMGTIRTGGSTNYADSVKGGIRWDDENPYYADSVKGRFTISRDNAKNTLYLQMNSLKPEDTANYYCAARLVPPGIPFERTLENMRYWGKGTLVTVSS
modifications: antibody sequence
Q: For B2, which “Affinity for CD1d” value (CD1d) is on record?
A: high affinity for CD1d
